Assay results published in ChEMBL document CHEMBL4229562, “Introduction of a Methyl Group Curbs Metabolism of Pyrido[3,4- d]pyrimidine Monopolar Spindle 1 (MPS1) Inhibitors and Enables the Discovery of the Phase 1 Clinical Candidate N2-(2-Ethoxy-4-(4-methyl-4 H-1,2,4-triazol-3-yl)phenyl)-6-methyl- N8-neopentylpyrido[3,4- d]pyrimidine-2,8-diamine …” (J Med Chem, 2018).
Converted amounts (≈) assume the structure as drawn.

How the values were obtained:
[1] = Intrinsic clearance in CD1 mouse liver microsomes assessed per mg protein at 1 uM preincubated for 10 mins followed NADPH/UDP-glucuronic acid addition and measured after 30 mins by LC-MS/MS analysis; type: ADME, microsome; details: 0.5 h
[2] = Intrinsic clearance in human liver microsomes assessed per mg protein at 1 uM preincubated for 10 mins followed NADPH/UDP-glucuronic acid addition and measured after 30 mins by LC-MS/MS analysis; type: ADME, microsome; details: 0.5 h
[3] = Solubility of the compound in PBS buffer at pH 7.4 by HPLC analysis; type: physicochemical
Mus musculus [4] = experiment: Half life in mouse at 5 mg/kg, iv by ESI-LCMS/MS analysis; type: ADME, organism-based; details: in vivo
Rattus norvegicus [5] = experiment: Half life in rat at 2.5 mg/kg, iv by ESI-LCMS/MS analysis; type: ADME, organism-based; details: in vivo
[6] = Clearance in mouse at 5 mg/kg, iv by ESI-LCMS/MS analysis; type: ADME, organism-based; details: in vivo
[7] = Clearance in rat at 2.5 mg/kg, iv by ESI-LCMS/MS analysis; type: ADME, organism-based; details: in vivo
[8] = Cmax in rat at 5 mg/kg, po by ESI-LCMS/MS analysis; type: ADME, organism-based; design: dose 5 mg/kg, route oral; details: in vivo
[9] = Cmax in mouse at 5 mg/kg, po by ESI-LCMS/MS analysis; type: ADME, organism-based; design: dose 5 mg/kg, route oral; details: in vivo
[10] = AUClast in mouse at 5 mg/kg, po measured after 6 hrs by ESI-LCMS/MS analysis; type: ADME, organism-based; details: in vivo
[11] = AUClast in rat at 5 mg/kg, po measured after 24 hrs by ESI-LCMS/MS analysis; type: ADME, organism-based; details: in vivo
[12] = Protein binding in mouse plasma; type: ADME, cell-free
[13] = Volume of distribution at steady state in mouse at 5 mg/kg, iv by ESI-LCMS/MS analysis; type: ADME, organism-based; details: in vivo, read-out: Vdss
[14] = Volume of distribution at steady state in rat at 2.5 mg/kg, iv by ESI-LCMS/MS analysis; type: ADME, organism-based; details: in vivo, read-out: Vdss
Mus musculus [15] = experiment: Oral bioavailability in mouse at 5 mg/kg by ESI-LCMS/MS analysis; type: ADME, organism-based; details: in vivo
Rattus norvegicus [16] = experiment: Oral bioavailability in rat at 5 mg/kg by ESI-LCMS/MS analysis; type: ADME, organism-based; details: in vivo
[17] = target: Mitogen-activated protein kinase 8 (Homo sapiens, UniProt P45983); experiment: Inhibition of recombinant human full length His-tagged JNK1 expressed in baculovirus expression system by Z'-LYTE assay
Mitogen-activated protein kinase 8, sequence (P45983 whole entry): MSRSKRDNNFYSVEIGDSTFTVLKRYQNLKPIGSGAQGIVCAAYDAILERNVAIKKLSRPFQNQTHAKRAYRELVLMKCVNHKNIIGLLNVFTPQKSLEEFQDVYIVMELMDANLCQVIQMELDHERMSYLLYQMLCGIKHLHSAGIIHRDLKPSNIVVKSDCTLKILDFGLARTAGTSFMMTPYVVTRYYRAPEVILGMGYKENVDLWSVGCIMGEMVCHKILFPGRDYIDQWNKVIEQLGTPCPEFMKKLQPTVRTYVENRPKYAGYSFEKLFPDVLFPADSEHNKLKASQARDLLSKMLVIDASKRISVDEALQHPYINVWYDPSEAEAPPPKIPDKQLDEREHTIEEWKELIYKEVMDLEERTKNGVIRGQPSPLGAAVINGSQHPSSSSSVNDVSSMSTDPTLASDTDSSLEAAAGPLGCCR

[18] = target: Mitogen-activated protein kinase 9 (Homo sapiens, UniProt P45984); experiment: Inhibition of recombinant human full length His-tagged JNK2 expressed in baculovirus expression system by Z'-LYTE assay
Mitogen-activated protein kinase 9, sequence (P45984 whole entry): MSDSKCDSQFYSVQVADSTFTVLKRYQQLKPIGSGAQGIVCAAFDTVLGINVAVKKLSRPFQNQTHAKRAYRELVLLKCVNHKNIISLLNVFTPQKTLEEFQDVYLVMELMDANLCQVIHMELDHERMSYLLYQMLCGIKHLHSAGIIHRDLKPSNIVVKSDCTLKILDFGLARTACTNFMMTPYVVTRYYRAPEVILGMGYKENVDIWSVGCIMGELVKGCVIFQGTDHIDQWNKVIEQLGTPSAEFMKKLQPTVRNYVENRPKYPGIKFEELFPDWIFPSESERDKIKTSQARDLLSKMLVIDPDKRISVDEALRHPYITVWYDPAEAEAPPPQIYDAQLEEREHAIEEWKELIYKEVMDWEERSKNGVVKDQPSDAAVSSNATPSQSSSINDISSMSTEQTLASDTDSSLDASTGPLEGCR

[19] = target: Mitogen-activated protein kinase 10 (Homo sapiens, UniProt P53779); experiment: Inhibition of recombinant human full length N-terminal GST-tagged JNK3 expressed in baculovirus expression system by Z'-LYTE assay
Mitogen-activated protein kinase 10, sequence (P53779 whole entry, the tested form may be a part): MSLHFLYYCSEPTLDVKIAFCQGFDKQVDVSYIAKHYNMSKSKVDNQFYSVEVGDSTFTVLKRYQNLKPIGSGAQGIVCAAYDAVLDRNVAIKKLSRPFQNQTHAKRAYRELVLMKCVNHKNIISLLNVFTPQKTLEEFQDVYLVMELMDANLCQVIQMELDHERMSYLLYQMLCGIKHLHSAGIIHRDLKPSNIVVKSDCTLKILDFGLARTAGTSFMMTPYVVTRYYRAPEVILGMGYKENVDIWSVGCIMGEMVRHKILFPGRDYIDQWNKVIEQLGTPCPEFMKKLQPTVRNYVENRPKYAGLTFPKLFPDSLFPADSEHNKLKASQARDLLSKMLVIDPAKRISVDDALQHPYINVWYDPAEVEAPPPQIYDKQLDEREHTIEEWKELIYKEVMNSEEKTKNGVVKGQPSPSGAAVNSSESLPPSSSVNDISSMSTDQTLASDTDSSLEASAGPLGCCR

[20] = target: Leucine-rich repeat serine/threonine-protein kinase 2 (Homo sapiens, UniProt Q5S007); experiment: Inhibition of recombinant human GST-tagged LRRK2 (970 to 2527 residues) expressed in baculovirus expression system by Z'-LYTE assay
Leucine-rich repeat serine/threonine-protein kinase 2, sequence (Q5S007 whole entry, the tested form may be a part): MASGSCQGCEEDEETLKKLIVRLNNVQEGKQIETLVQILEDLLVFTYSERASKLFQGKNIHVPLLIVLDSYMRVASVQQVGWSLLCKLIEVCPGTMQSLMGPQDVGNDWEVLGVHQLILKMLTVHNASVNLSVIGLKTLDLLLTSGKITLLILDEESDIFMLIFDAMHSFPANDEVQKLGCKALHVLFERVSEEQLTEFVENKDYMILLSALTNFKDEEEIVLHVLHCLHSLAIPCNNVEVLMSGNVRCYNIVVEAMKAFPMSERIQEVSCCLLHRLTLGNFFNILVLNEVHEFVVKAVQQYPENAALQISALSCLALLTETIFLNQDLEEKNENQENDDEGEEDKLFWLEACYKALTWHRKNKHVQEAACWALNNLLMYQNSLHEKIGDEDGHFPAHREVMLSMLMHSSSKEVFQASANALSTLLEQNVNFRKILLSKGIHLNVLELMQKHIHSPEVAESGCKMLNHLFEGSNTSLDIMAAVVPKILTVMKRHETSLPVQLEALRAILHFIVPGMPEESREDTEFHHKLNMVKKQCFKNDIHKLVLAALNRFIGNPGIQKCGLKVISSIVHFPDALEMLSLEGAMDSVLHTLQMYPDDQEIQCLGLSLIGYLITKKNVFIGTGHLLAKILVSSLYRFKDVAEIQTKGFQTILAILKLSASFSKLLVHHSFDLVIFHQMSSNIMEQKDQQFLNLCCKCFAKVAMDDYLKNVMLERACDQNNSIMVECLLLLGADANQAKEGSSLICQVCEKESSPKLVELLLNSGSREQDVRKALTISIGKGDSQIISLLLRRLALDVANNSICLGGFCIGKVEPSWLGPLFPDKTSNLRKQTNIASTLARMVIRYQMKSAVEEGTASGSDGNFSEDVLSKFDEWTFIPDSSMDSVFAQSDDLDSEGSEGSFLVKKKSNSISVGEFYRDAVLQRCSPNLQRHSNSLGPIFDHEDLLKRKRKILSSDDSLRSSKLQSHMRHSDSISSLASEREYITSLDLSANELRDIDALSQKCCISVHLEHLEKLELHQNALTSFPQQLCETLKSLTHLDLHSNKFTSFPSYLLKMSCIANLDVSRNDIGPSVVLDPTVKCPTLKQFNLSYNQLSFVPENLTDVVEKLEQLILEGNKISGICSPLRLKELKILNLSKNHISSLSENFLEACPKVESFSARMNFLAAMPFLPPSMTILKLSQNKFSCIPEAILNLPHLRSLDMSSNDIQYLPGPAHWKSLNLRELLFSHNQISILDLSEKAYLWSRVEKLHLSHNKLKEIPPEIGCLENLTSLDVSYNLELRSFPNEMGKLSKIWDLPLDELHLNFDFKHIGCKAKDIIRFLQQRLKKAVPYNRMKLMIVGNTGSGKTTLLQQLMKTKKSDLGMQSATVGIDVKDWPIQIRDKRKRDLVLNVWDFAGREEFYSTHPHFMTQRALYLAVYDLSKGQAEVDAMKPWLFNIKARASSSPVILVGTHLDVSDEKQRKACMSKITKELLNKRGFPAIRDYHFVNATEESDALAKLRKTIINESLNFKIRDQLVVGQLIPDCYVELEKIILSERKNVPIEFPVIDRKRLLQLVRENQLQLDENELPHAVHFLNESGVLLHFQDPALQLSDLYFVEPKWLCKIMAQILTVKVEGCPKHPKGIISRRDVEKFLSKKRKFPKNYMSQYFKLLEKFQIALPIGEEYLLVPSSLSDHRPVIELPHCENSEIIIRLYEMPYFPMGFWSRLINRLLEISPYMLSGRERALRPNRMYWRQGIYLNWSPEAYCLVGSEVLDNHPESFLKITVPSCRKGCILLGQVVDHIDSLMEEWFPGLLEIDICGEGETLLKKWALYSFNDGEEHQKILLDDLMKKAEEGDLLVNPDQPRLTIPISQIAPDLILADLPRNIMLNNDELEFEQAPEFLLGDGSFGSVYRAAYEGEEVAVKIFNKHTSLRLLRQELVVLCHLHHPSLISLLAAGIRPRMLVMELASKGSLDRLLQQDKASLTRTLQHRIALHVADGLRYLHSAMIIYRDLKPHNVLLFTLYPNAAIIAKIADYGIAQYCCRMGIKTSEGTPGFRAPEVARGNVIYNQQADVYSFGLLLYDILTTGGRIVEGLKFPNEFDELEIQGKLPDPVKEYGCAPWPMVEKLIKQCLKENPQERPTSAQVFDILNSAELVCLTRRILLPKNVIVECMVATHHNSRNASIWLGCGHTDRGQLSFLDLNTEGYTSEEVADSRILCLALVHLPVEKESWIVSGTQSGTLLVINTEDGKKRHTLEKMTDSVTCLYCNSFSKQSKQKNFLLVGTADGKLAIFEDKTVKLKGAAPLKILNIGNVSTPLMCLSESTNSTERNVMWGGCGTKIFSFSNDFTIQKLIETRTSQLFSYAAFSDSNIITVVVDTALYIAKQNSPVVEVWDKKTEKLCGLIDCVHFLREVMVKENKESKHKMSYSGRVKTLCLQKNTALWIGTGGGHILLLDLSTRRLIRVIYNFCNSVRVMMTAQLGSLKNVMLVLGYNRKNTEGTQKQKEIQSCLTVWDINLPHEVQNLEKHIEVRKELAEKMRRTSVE

[21] = Dissociation constant, pKa of the compound; type: physicochemical
[22] = Lipophilicity, log P of the compound; type: physicochemical; details: octanol/water
[23] = target: T1, Dual specificity protein kinase TTK (Homo sapiens, UniProt P33981)
T1 sequence (P33981 whole entry): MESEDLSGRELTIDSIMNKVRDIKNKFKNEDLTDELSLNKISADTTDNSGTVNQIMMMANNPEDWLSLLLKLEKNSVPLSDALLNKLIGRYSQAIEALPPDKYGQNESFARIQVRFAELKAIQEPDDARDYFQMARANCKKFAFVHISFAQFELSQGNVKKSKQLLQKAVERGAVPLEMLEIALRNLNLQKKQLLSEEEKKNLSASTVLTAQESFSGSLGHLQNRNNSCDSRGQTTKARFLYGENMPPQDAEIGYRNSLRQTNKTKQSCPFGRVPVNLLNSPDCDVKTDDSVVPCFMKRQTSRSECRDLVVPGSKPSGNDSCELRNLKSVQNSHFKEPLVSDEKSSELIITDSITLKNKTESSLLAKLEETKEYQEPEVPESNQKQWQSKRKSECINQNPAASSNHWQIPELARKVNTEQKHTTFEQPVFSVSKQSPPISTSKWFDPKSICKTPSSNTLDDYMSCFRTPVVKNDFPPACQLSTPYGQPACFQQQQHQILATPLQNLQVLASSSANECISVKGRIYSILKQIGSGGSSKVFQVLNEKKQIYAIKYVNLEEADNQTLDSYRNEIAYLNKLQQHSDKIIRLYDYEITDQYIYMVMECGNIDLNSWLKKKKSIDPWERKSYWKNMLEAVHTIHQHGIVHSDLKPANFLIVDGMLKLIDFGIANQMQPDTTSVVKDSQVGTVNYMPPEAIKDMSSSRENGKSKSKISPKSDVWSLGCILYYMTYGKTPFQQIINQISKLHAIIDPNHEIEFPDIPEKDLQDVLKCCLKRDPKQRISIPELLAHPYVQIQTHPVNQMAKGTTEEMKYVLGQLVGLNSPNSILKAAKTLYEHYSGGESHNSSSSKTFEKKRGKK
Description: Inhibition of full length human N-terminal 6xHis-tagged MPS1 expressed in baculovirus expression system using 5FAM-H236 peptide as substrate after 60 to 90 mins by caliper assay

CDK2/Cyclin A2 = CDK2/Cyclin A2 (Homo sapiens, UniProt P24941)
[24] = target: T1, Dual specificity protein kinase TTK; remark: listed apart in the source
Description: Inhibition of MPS1 autophosphorylation at Thr33/Ser37 in human HCT116 cells after 2 hrs by MSD assay

CLH [1]: 26.3 µL/min/mg | CLH [2]: 8 µL/min/mg | solubility [3]: 6.6 µM (≈ 2.95 µg/mL) | t1/2 (Mus musculus [4]): 2.68 h | t1/2 (Rattus norvegicus [5]): 4.66 h | clearance [6]: 10.9 mL/min/kg | clearance [7]: 10.1 mL/min/kg | Cmax [8]: 813 nM | Cmax [9]: 2760 nM | AUC(0-t) at 6 h [10]: 11 µM·h | AUC(0-t) at 24 h [11]: 11.3 µM·h | PPB [12]: 99.85% | Vd [13]: 2.46 L/kg | Vd [14]: 3.52 L/kg | F (Mus musculus [15]): 81% | F (Rattus norvegicus [16]): 63% | IC50 [17]: 92 nM | IC50 [18]: 76 nM | IC50 [19]: 242 nM | IC50 [20]: 48 nM | pKa [21]: 2.63 to 6.22 | logP [22]: 4.23 | IC50 [23]: 11 nM | Ki [23]: 0.11 nM | IC50 (CDK2/Cyclin A2): 1020 nM | Ki (CDK2/Cyclin A2): 510 nM | IC50 [24]: 63 nM
Compound: CCOc1cc(-c2nncn2C)ccc1Nc1ncc2cc(C)nc(NCC(C)(C)C)c2n1 [BOS-172722]
